# From patent US20260265256A1 (IMPACT THERAPEUTICS (SHANGHAI), INC., priority 2023, published 2026)
# What was measured:
# [1] = biological target: recombinant poly(ADP-ribose) polymerase 2 (PARP2) (Homo sapiens, UniProt Q9UGN5); experiment: PARP2 chemiluminescent assay; type: biochemical; conditions: PARP2 enzyme activity, chemiluminescence, 40 ng enzyme/well
# [2] = biological target: recombinant poly(ADP-ribose) polymerase 1 (PARP1) (Homo sapiens, UniProt P09874); experiment: PARP1 chemiluminescent assay; type: biochemical; conditions: PARP1 enzyme activity, chemiluminescence, 40 ng enzyme/well
# Protocol: The solution of recombinant poly(ADP-ribose) polymerase 1 and 2 (PARP1 and PARP2) (40 ng enzyme/well) and the compounds to be tested were mixed, respectively. The solutions were added to a 96-well plate coated with histone mixture, incubated at room temperature for 1 h, then 50 μL 0.3 ng/mL Streptavidin-HRP was added to each well. The plates were incubated for 30 minutes at room temperature. Finally, the plates were treated with streptavidin-HRP followed by addition of the ELISA ECL substrate to produce chemiluminescence that can be measured using a chemiluminescence reader. Inhibition of the tested compound to PARP1/2 enzyme activity was calculated according to the following formula. [formula] IC50 value is obtained by fitting the s-shaped dose response curve equation by using XL Fit software.
# MDA-MB-436 cells = experiment: Growth inhibition assay against BRCA mutant human breast cancer MDA-MB-436 cell line (CCK-8, 7 days); type: cell-based; conditions: 168 h, MDA-MB-436, 7 days, read-out: IC50 (nM), proliferation of human breast cancer cells MDA-MB-436
# How it was run: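 Seeded 3000 cells/well overnight, then exposed to test compound (0.10% DMSO control) for 7 days at 37 °C, 5% CO2, with compound-containing medium changed on day 4. CCK-8 added for 4 h; OD = A450 − A650. Survival % relative to DMSO after background subtraction, plotted against concentration for IC50.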
# Chain of recombinant poly(ADP-ribose) polymerase 1 (PARP1) (P09874 whole entry): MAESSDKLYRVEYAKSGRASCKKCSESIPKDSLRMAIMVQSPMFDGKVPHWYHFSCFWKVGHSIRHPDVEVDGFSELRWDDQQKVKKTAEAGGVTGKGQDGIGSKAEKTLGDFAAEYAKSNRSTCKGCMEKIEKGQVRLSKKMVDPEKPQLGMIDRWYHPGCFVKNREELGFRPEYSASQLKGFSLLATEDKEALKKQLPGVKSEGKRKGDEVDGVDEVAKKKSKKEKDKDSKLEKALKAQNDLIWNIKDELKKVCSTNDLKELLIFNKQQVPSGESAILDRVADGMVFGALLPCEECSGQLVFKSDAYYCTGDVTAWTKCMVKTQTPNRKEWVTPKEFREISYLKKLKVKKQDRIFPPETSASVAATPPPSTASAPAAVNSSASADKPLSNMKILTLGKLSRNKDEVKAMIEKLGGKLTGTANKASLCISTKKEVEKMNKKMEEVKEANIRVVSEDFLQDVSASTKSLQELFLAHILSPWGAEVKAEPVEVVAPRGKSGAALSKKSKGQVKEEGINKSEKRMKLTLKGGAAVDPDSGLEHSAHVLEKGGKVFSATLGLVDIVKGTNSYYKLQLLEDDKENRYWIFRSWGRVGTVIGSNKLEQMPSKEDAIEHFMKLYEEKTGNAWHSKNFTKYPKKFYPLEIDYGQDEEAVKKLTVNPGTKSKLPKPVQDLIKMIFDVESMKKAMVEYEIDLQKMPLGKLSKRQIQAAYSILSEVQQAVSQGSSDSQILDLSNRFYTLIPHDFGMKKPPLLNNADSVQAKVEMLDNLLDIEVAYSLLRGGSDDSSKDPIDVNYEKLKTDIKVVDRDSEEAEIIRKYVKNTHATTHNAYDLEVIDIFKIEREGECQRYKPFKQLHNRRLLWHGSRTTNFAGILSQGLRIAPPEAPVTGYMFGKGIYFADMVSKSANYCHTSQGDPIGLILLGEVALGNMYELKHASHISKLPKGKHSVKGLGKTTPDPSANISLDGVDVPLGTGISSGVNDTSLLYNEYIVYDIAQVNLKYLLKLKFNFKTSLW
# Chain of recombinant poly(ADP-ribose) polymerase 2 (PARP2) (Q9UGN5 whole entry): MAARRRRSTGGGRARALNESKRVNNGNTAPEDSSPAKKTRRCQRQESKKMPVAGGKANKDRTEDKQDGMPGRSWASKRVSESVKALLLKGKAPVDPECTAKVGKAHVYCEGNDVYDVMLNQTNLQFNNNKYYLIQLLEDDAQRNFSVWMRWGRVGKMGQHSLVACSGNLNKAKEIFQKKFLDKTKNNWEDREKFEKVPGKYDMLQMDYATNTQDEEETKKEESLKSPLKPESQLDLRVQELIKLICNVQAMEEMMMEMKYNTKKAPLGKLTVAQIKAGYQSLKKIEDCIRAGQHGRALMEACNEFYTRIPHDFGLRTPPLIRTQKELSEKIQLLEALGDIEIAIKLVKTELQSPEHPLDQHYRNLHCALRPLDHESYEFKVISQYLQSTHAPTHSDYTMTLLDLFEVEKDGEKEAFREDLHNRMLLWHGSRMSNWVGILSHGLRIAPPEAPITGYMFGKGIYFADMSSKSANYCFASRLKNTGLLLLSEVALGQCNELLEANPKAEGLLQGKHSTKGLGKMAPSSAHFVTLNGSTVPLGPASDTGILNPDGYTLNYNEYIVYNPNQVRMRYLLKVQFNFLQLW
smiles,measurement,setting,value
"CNC(=O)c1ccc(-n2cc3c(n2)CN(Cc2ccc4c([nH]c(=O)c5c(C(F)(F)F)cnn54)c2F)C3)cn1 [Example 25, 5-(5-((6-fluoro-4-oxo-3-(trifluoromethyl)-4,5-dihydropyrazolo[1,5-a]quinoxalin-7-yl)methyl)-5,6-dihydropyrrolo[3,4-c]pyrazol-2(4H)-yl)-N-methylpicolinamide]",IC50,[1],21 nM
same,IC50,[2],0.26 nM
same,IC50,MDA-MB-436 cells,4.75 nM
